The test system of data set [1] is AR mRNA. The experiment in a line: Dose-dependent antisense inhibition of human AR in HuVEC cells (electroporation, qRT-PCR RTS3559, IC50). It counts as cell-based. The settings on record: HuVEC. The gist of the method: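 HuVEC cells dosed with antisense oligonucleotides by electroporation and treated approximately 16 hours. AR mRNA quantified by real-time qPCR with primer probe set RTS3559 and normalised to total RNA by RIBOGREEN; IC50 from dose-response.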

Data set [2] deals with AR mRNA. Kind of data set: AR mRNA in LnCaP cells by free uptake (hAR_LTS00943). It counts as cell-based, human. The settings on record: 24 hrs. The method, then: Cells were plated at a concentration of 4,000 cells/well in 96-well plates. ISIS oligonucleotides, specified in Table 68, were added individually at 0.02 μM, 0.10 μM, 0.50 μM, 2.50 μM, or 10.00 μM. After an incubation period of 24 hrs, mRNA levels were measured using primer probe set hAR_LTS00943.

Data set [3] relates to AR mRNA. The experiment in a line: Antisense inhibition of human AR in HuVEC cells, single concentration (electroporation, qRT-PCR RTS3559). In kind it is cell-based. The gist of the method: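 HuVEC cells electroporated with antisense oligonucleotides at a single concentration. AR mRNA quantified by qRT-PCR using human primer-probe set RTS3559 and normalised to total RNA content by RIBOGREEN.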
(In qPCR the cycle at which signal appears reflects the starting amount.)

[4] abbreviates: 500 nM ASO, electroporation, ~24 h, Table 1.
[5] abbreviates: Table 30, electroporation, approximately 16 hours.
Setting [6] is: Table 36, electroporation, approximately 16 hours.
The mark [7] stands for this setting: Table 31, electroporation, approximately 16 hours.
Where [8] appears, read: Table 34, electroporation, approximately 16 hours.

Oligonucleotides are written 5' to 3', each unit as a sugar letter and its base; * is a phosphorothioate linkage, no mark a phosphodiester; rarer units and linkages stand in square brackets, end groups in braces. Plain capitals give the bases only. e = 2'-O-(2-methoxyethyl) (MOE); k = constrained ethyl (cEt); [5mC] = 5-methylcytosine; d = 2'-deoxy (DNA)

As usually defined, the IC50 is the concentration at which inhibition is half-maximal. In the case of “579666 (antisense eT*kG*kA*eT*eT*kT*kA*dA*dT*dG*dG*dT*dT*dG*k[5mC]*kA) [compound 579666]”, the “percent inhibition of AR” value in data set [1] (62.5 nM, ~16 h, Table 10) is reported as 33%; in data set [1] (125.0 nM, ~16 h, Table 10) it was 34%; in data set [1] (500.0 nM, ~16 h, Table 10) it was 64%; in data set [1] (1000.0 nM, ~16 h, Table 10), 80%. Also, in data set [1] (~16 h, Table 10), the IC50 was found to be 229 nM. The “Percent inhibition of AR mRNA” value in data set [2] (0.02 μM) worked out at 0%; in data set [2] (0.1 μM) it was 8%; in data set [2] (0.5 μM), 30%; in data set [2] (10 μM), 68%.

On to “579667 (antisense eT*kT*kG*eA*eT*kT*kT*dA*dA*dT*dG*dG*dT*dT*kG*k[5mC]) [compound 579667]”, for which the “percent inhibition of AR” value in data set [1] (62.5 nM, ~16 h, Table 10) is recorded as 30%; in data set [1] (125.0 nM, ~16 h, Table 10), 29%; in data set [1] (500.0 nM, ~16 h, Table 10), 36%; in data set [1] (1000.0 nM, ~16 h, Table 10) it was 76%. The same substance showed an IC50 in data set [1] (~16 h, Table 10) of 411 nM. Also, the “Percent inhibition of AR mRNA” value amounted to 0% in data set [2] (0.02 μM), 0% in data set [2] (0.1 μM), 8% in data set [2] (0.5 μM) and 40% in data set [2] (10 μM).

For the substance “569221 (antisense eT*eG*kA*kT*kT*dT*dA*dA*dT*dG*dG*dT*dT*kG*k[5mC]*kA) [compound 569221]”, the “percent inhibition of AR” value in data set [1] (62.5 nM, ~16 h, Table 12) came to 12%; in data set [1] (125.0 nM, ~16 h, Table 12) it was 32%; in data set [1] (500.0 nM, ~16 h, Table 12), 57%; in data set [1] (1000.0 nM, ~16 h, Table 12), 73%. In data set [1] (~16 h, Table 12), this substance yielded an IC50 of 294 nM. In addition, the “Percent inhibition of AR mRNA” value came to 18% in data set [2] (0.02 μM), 31% in data set [2] (0.1 μM), 49% in data set [2] (0.5 μM) and 91% in data set [2] (10 μM).

In general, % inhibition refers to the change of the read-out against control, counted positive when it falls. A low value points to little suppression. With “549383 (k[5mC]*k[5mC]*kA*dA*dA*d[5mC]*dG*d[5mC]*dA*dT*dG*dT*d[5mC]*k[5mC]*k[5mC]*k[5mC]; antisense) [compound 549383]”, the “% inhibition” value in data set [3] (setting [4]) turned out to be 88%. The “percent inhibition of AR” value in data set [1] (55.6 nM, ~16 h, Table 3) is on record as 10%; in data set [1] (166.7 nM, ~16 h, Table 3) it was 34%; in data set [1] (500.0 nM, ~16 h, Table 3), 75%; in data set [1] (1500.0 nM, ~16 h, Table 3) it was 88%. This substance also had an IC50 in data set [1] (~16 h, Table 3) of 270 nM.

Take “569229 (antisense eG*eT*kT*kG*kA*dT*dT*dT*dA*dA*dT*dG*kG*kT*kT*eG) [compound 569229]”: the “% inhibition” value in data set [3] (1,000 nM ASO, ~24 h, Table 13) is on record as 57%. Besides, the “percent inhibition of AR” value is reported as 16% in data set [1] (31.25 nM, ~16 h, Table 14); 14% in data set [1] (62.5 nM, ~16 h, Table 14); 36% in data set [1] (125.0 nM, ~16 h, Table 14); 74% in data set [1] (500.0 nM, ~16 h, Table 14); 84% in data set [1] (1000.0 nM, ~16 h, Table 14). This substance returned an IC50 in data set [1] (~16 h, Table 14) of 220 nM.

Take “560098 (kT*kG*kA*dT*dT*dT*dA*dA*dT*dG*dG*dT*dT*kG*k[5mC]*kA; further chemistry not given here) [compound 560098]”: the “% inhibition” value in data set [3] (250 nM ASO, ~24 h, Table 7) is listed as 69%; in data set [3] (500 nM ASO, ~24 h, Table 5) it was 99%. In addition, the “percent inhibition of AR” value in data set [1] (31.25 nM, ~16 h, Table 6) is given as 20%; in data set [1] (31.25 nM, ~16 h, Table 8) it was 30%; in data set [1] (62.5 nM, ~16 h, Table 6), 41%; in data set [1] (62.5 nM, ~16 h, Table 8), 54%; in data set [1] (125.0 nM, ~16 h, Table 6), 64%; in data set [1] (125.0 nM, ~16 h, Table 8), 65%. Further, the “percent inhibition of AR” value in data set [1] (500.0 nM, ~16 h, Table 6) is 94%; in data set [1] (500.0 nM, ~16 h, Table 8), 89%; in data set [1] (1000.0 nM, ~16 h, Table 6) it was 94%; in data set [1] (1000.0 nM, ~16 h, Table 8), 97%. The IC50 in data set [1] (~16 h, Table 6) turned out to be 100 nM; in data set [1] (~16 h, Table 8), 70 nM.

On to “583688 (antisense kG*k[5mC]*kG*dG*dT*dA*dG*dT*d[5mC]*dG*d[5mC]*dT*dG*k[5mC]*kA*kG) [compound 583688]”, for which the “% inhibition” value in data set [3] (500 nM ASO, ~24 h, Table 18) came out at 38%. Also, in data set [1] (setting [5]), the “percent inhibition of AR, 46.9 nM” value is listed as 3%; the “percent inhibition of AR, 187.5 nM” value is 26%; the “percent inhibition of AR, 750.0 nM” value was 50%; the “percent inhibition of AR, 3000.0 nM” value is 60%. The same substance had an IC50 in data set [1] (setting [5]) of 1050 nM.

Turning to “584495 (kA*kT*kG*dG*dT*dT*dG*dT*d[5mC]*d[5mC]*dT*dG*dT*kA*k[5mC]*kA; antisense) [compound 584495]”, the “% inhibition” value in data set [3] (Table 27, 1,000 nM oligonucleotide, electroporation, approximately 24 hours, relative to untreated control) turned out to be 58%. Besides, the “% inhibition” value in data set [3] (Table 28, 1,000 nM oligonucleotide, electroporation, approximately 24 hours, relative to untreated control) is 53%. In data set [1] (setting [6]), the “percent inhibition of AR, 46.9 nM” value is given as 0%; the “percent inhibition of AR, 187.5 nM” value amounted to 14%; the “percent inhibition of AR, 750.0 nM” value is listed as 55%; the “percent inhibition of AR, 3000.0 nM” value was determined as 74%. This substance yielded an IC50 in data set [1] (setting [6]) of 650 nM.

On to “583713 (antisense kA*kT*k[5mC]*d[5mC]*dT*dT*dG*dA*dG*d[5mC]*dT*dT*dG*kG*k[5mC]*kT) [compound 583713]”, for which the “% inhibition” value in data set [3] (500 nM ASO, ~24 h, Table 18) was 36%. For the same substance, in data set [1] (setting [7]), the “percent inhibition of AR, 46.9 nM” value stood at 29%; the “percent inhibition of AR, 187.5 nM” value is listed as 51%; the “percent inhibition of AR, 750.0 nM” value is recorded as 67%; the “percent inhibition of AR, 3000.0 nM” value stood at 74%. The substance also gave an IC50 in data set [1] (setting [7]) of 220 nM.

“583917 (kT*k[5mC]*kG*d[5mC]*dG*dA*d[5mC]*dT*d[5mC]*dT*dG*dG*dT*kA*k[5mC]*kG; antisense) [compound 583917]”: in data set [3] (Table 21, 500 nM oligonucleotide, electroporation, approximately 24 hours, relative to untreated control), the “% inhibition” value came out at 37%. In addition, in data set [1] (setting [8]), the “percent inhibition of AR, 46.9 nM” value worked out at 6%; the “percent inhibition of AR, 187.5 nM” value was 30%; the “percent inhibition of AR, 750.0 nM” value is listed as 50%; the “percent inhibition of AR, 3000.0 nM” value is 70%. This substance had an IC50 in data set [1] (setting [8]) of 640 nM.

On to “549377 (kA*kG*kG*dA*dT*dG*dA*dG*dG*dA*dA*dG*d[5mC]*kG*kG*k[5mC]; antisense) [compound 549377]”, for which, in data set [3] (setting [4]), the “% inhibition” value turned out to be 90%. In addition, the “percent inhibition of AR” value is 13% in data set [1] (55.6 nM, ~16 h, Table 3); 52% in data set [1] (166.7 nM, ~16 h, Table 3); 72% in data set [1] (500.0 nM, ~16 h, Table 3); 93% in data set [1] (1500.0 nM, ~16 h, Table 3). In data set [1] (~16 h, Table 3), this substance had an IC50 of 216 nM.

Source of the values: USRE48461E1, “Modulation of androgen receptor expression” (Ionis Pharmaceuticals, Inc., priority 2012, dated 2021).
